Data from patent publication US20230382926A1, “COMPOUNDS AND USES THEREOF” (The University of The West Indies, priority 2022, published 2023).

Tests used:
[1] = tested on: Klebsiella pneumoniae ATCC BAA-2814; test: Rescue concentration, modified checkerboard MIC adjuvant assay; type: cell-based; conditions: K. pneumoniae ATCC BAA-2814; for Rescue concentration, Amox (8): Amox at susceptible breakpoint 8 μg mL^−1; for Rescue concentration, Amp (8): Amp at susceptible breakpoint 8 μg mL^−1; for Rescue concentration, Aze (4): Aze at susceptible breakpoint 4 μg mL^−1; for Rescue concentration, Azi (16): Azi at susceptible breakpoint 16 μg mL^−1; for Rescue concentration, Cef (16): Cef at susceptible breakpoint 16 μg mL^−1; for Rescue concentration, Ceph (8): Ceph at susceptible breakpoint 8 μg mL^−1; for Rescue concentration, Chl (8): Chl at susceptible breakpoint 8 μg mL^−1; for Rescue concentration, Col (8): Col at susceptible breakpoint 8 μg mL^−1; for Rescue concentration, Dox (4): Dox at susceptible breakpoint 4 μg mL^−1; for Rescue concentration, Gen (4): Gen at susceptible breakpoint 4 μg mL^−1; for Rescue concentration, Imi (1): Imi at susceptible breakpoint 1 μg mL^−1; for Rescue concentration, Tet (4): Tet at susceptible breakpoint 4 μg mL^−1
In short: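 Modified checkerboard: antibiotic fixed at CLSI M100 susceptible breakpoint with twofold dilutions of SP-azaBIM, against 10^6 CFU/ml in cation-adjusted MHB, 24 h at 35 °C aerobically; only antibiotics to which the strain is resistant tested. Rescue concentration is the lowest adjuvant level giving 99.99% growth reduction by visual read.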

[2] = tested on: Carbapenem resistant Acinetobacter baumannii; test: Broth microdilution minimum inhibitory concentration; type: cell-based; conditions: compound alone
In short: (§1)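 Broth microdilution followed CLSI M07-A10, using 11 two-fold dilutions (top 1028 μg/mL, 2% DMSO final) and an inoculum of 2×10^5 to 8×10^5 CFU/mL. Wells were scored visually. MIC is the lowest concentration with no growth, tested in duplicate.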

[3] = tested on: Carbapenem resistant Klebsiella pneumoniae; test: as above; type: cell-based; conditions: compound alone
In short: as §1

[4] = tested on: Methicillin resistant Staphylococcus aureus; test: as above; type: cell-based; conditions: compound alone
In short: as §1

[5] = tested on: Multidrug resistant Pseudomonas aeruginosa; test: as above; type: cell-based; conditions: compound alone
In short: as §1

[6] = tested on: Vancomycin resistant Enterococcus faecalis; test: as above; type: cell-based; conditions: compound alone
In short: as §1

MRSA = test: Rescue concentration of substituted phenyl azaindole derivatives; type: cell-based, Staphylococcus aureus; conditions: Amoxicillin fixed at 2 μg/mL
In short: (§2)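 Modified checkerboard MIC: fixed CLSI susceptible-breakpoint antibiotic concentration plus twofold dilution series of SP-azaBIM, 10^6 CFU/ml in ca-MHB, 35° C, 24 h aerobic. Only antibiotics to which the strain was resistant were tested. Rescue concentration = lowest compound concentration giving 99.99% growth reduction (visual) at breakpoint.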

K. pneumoniae = test: as above; type: cell-based; conditions: for Rescue concentration, K. pneumoniae Ciprofloxacin (1 μg/mL): Ciprofloxacin fixed at 1 μg/mL; for Rescue concentration, K. pneumoniae Imipenem (1 μg/mL): Imipenem fixed at 1 μg/mL
In short: as §2

P. aeruginosa = test: as above; type: cell-based; conditions: Imipenem fixed at 1 μg/mL
In short: as §2

Brc1ccc(C(c2c[nH]c3cnccc23)c2c[nH]c3cnccc23)cc1 [SP-6azaBIM 125, 3,3′-((4-bromophenyl)methylene)bis(1H-pyrrolo[2,3-c]pyridine)]
Rescue concentration, Amox (8) [1]: 4 µg/mL | Rescue concentration, Amp (8) [1]: 16 µg/mL | Rescue concentration, Aze (4) [1]: 4 µg/mL | Rescue concentration, Azi (16) [1]: 32 µg/mL | Rescue concentration, Cef (16) [1]: 16 µg/mL | Rescue concentration, Ceph (8) [1]: 32 µg/mL | Rescue concentration, Chl (8) [1]: 32 µg/mL | Rescue concentration, Col (8) [1]: 4 µg/mL | Rescue concentration, Dox (4) [1]: 8 µg/mL | Rescue concentration, Gen (4) [1]: 16 µg/mL | Rescue concentration, Imi (1) [1]: 2 µg/mL | Rescue concentration, Tet (4) [1]: 32 µg/mL | MIC [2]: < 1020 µg/mL | MIC [3]: < 1020 µg/mL | MIC [4]: < 1020 µg/mL | MIC [5]: < 1020 µg/mL | MIC [6]: < 1020 µg/mL | Rescue concentration, MRSA Amoxicillin (2 μg/mL) (MRSA): 0.5 µg/mL | Rescue concentration, K. pneumoniae Ciprofloxacin (1 μg/mL) (K. pneumoniae): 4 µg/mL | Rescue concentration, K. pneumoniae Imipenem (1 μg/mL) (K. pneumoniae): 4 µg/mL | Rescue concentration, P. aeruginosa Imipenem (1 μg/mL) (P. aeruginosa): 32 µg/mL

Brc1ccc(C(c2c[nH]c3ncccc23)c2c[nH]c3ncccc23)cc1 [SP-7azaBIM 126, 3,3′-((4-bromophenyl)methylene)bis(1H-pyrrolo[2,3-b]pyridine)]
Rescue concentration, Amox (8) [1]: >128 µg/mL | Rescue concentration, Amp (8) [1]: >128 µg/mL | Rescue concentration, Aze (4) [1]: >128 µg/mL | Rescue concentration, Azi (16) [1]: >128 µg/mL | Rescue concentration, Cef (16) [1]: >128 µg/mL | Rescue concentration, Ceph (8) [1]: >128 µg/mL | Rescue concentration, Chl (8) [1]: >128 µg/mL | Rescue concentration, Col (8) [1]: >128 µg/mL | Rescue concentration, Dox (4) [1]: >128 µg/mL | Rescue concentration, Gen (4) [1]: >128 µg/mL | Rescue concentration, Imi (1) [1]: >128 µg/mL | Rescue concentration, Tet (4) [1]: >128 µg/mL

Oc1ccc(C(c2c[nH]c3cnccc23)c2c[nH]c3cnccc23)cc1 [SP-6azaBIM 136, 4-(bis(1H-pyrrolo[2,3-c]pyridin-3-yl)methyl)phenol]
Rescue concentration, Amox (8) [1]: 16 µg/mL | Rescue concentration, Amp (8) [1]: 32 µg/mL | Rescue concentration, Aze (4) [1]: 4 µg/mL | Rescue concentration, Azi (16) [1]: 16 µg/mL | Rescue concentration, Cef (16) [1]: 8 µg/mL | Rescue concentration, Ceph (8) [1]: 16 µg/mL | Rescue concentration, Chl (8) [1]: 32 µg/mL | Rescue concentration, Col (8) [1]: 16 µg/mL | Rescue concentration, Dox (4) [1]: 4 µg/mL | Rescue concentration, Gen (4) [1]: 4 µg/mL | Rescue concentration, Imi (1) [1]: 4 µg/mL | Rescue concentration, Tet (4) [1]: 4 µg/mL | MIC [2]: < 1020 µg/mL | MIC [3]: < 1020 µg/mL | MIC [4]: < 1020 µg/mL | MIC [5]: < 1020 µg/mL | MIC [6]: < 1020 µg/mL | Rescue concentration, MRSA Amoxicillin (2 μg/mL) (MRSA): 8 µg/mL | Rescue concentration, K. pneumoniae Ciprofloxacin (1 μg/mL) (K. pneumoniae): <256 µg/mL | Rescue concentration, K. pneumoniae Imipenem (1 μg/mL) (K. pneumoniae): <256 µg/mL | Rescue concentration, P. aeruginosa Imipenem (1 μg/mL) (P. aeruginosa): 256 µg/mL

Oc1ccc(C(c2c[nH]c3ncccc23)c2c[nH]c3ncccc23)cc1 [SP-7azaBIM 135, 4-(bis(1H-pyrrolo[2,3-b]pyridin-3-yl)methyl)phenol]
Rescue concentration, Amox (8) [1]: >128 µg/mL | Rescue concentration, Amp (8) [1]: >128 µg/mL | Rescue concentration, Aze (4) [1]: >128 µg/mL | Rescue concentration, Azi (16) [1]: >128 µg/mL | Rescue concentration, Cef (16) [1]: >128 µg/mL | Rescue concentration, Ceph (8) [1]: >128 µg/mL | Rescue concentration, Chl (8) [1]: >128 µg/mL | Rescue concentration, Col (8) [1]: >128 µg/mL | Rescue concentration, Dox (4) [1]: >128 µg/mL | Rescue concentration, Gen (4) [1]: >128 µg/mL | Rescue concentration, Imi (1) [1]: >128 µg/mL | Rescue concentration, Tet (4) [1]: >128 µg/mL
